Test results: patent US12636316B2, “Pharmaceutical composition for preventing or treating myositis, comprising isolated mitochondria as active ingredient” (PAEAN BIOTECHNOLOGY INC., priority 2019, dated 2026)

Experiment: Membrane potential of mitochondria (JC-1 dye)
Format: biochemical
Conditions: 5 μg mitochondria mixed in 50 μL CCCP, room temperature 10 minutes, JC-1 2 μM
Method: In order to measure the membrane potential of the mitochondria isolated in Preparation Example 1, the mitochondrial protein concentration of the isolated mitochondria was quantified through the BCA to prepare 5 μg of mitochondria. The membrane potential of the mitochondria was measured using a JC-1 (molecular probes, cat no.1743159) dye.
Specifically, as an experimental group, 5 μg of the prepared mitochondria was mixed in 50 μL of PBS and then dispensed in a 96-well plate. In addition, as a control group, 50 μL of PBS without mitochondria was dispensed in a 96-well plate. In addition, as an additional experimental group, 5 μg of mitochondria was mixed in 50 μL of CCCP (R&D systems, CAS 555-60-2), then reacted at room temperature for 10 minutes, and then dispensed in a 96-well plate. In this case, CCCP is an ion transporter of mitochondria and depolarizes the membrane potential of mitochondria, thereby inhibiting the function of mitochondria.
Thereafter, each well was treated and reacted with the JC-1 dye so that the concentration was 2 μM, and then the absorbance was measured using a fluorescence microplate reader. […] The membrane potential of mitochondria was analyzed by calculating the ratio of […].

N#CC(C#N)=NNc1cccc(Cl)c1 [CCCP]
membrane potential activity: low membrane potential activity
